Laboratory results as given in PubChem BioAssay (NCI).
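Following 48 hours of exposure in 96-well plates, responses at five concentrations were used to interpolate endpoints linearly. TGI: concentration producing complete growth inhibition.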

Columns and labels:
Assay in all cases: growth of human tumour cells (NCI), 48 h
SW-620 colon = test system: SW-620 colon
MDA-N = test system: MDA-N
SK-OV-3 ovarian = test system: SK-OV-3 ovarian
HCT-15 colon = test system: HCT-15 colon
DU-145 prostate = test system: DU-145 prostate
MOLT-4 leukemia = test system: MOLT-4 leukemia
M14 melanoma = test system: M14 melanoma
SK-MEL-5 melanoma = test system: SK-MEL-5 melanoma
SK-MEL-28 melanoma = test system: SK-MEL-28 melanoma
UACC-257 melanoma = test system: UACC-257 melanoma
NCI-H460 lung = test system: NCI-H460 lung
LOX IMVI melanoma = test system: LOX IMVI melanoma
HCC-2998 colon = test system: HCC-2998 colon
TK-10 renal = test system: TK-10 renal
SF-295 CNS = test system: SF-295 CNS
RXF 393 renal = test system: RXF 393 renal
IGROV1 ovarian = test system: IGROV1 ovarian
PC-3 prostate = test system: PC-3 prostate
HT29 colon = test system: HT29 colon
A498 renal = test system: A498 renal

| Compound | TGI (SW-620 colon) [µM] | TGI (MDA-N) [µM] | TGI (SK-OV-3 ovarian) [µM] | TGI (HCT-15 colon) [µM] | TGI (DU-145 prostate) [µM] | TGI (MOLT-4 leukemia) [µM] | TGI (M14 melanoma) [µM] | TGI (SK-MEL-5 melanoma) [µM] | TGI (SK-MEL-28 melanoma) [µM] | TGI (UACC-257 melanoma) [µM] | TGI (NCI-H460 lung) [µM] | TGI (LOX IMVI melanoma) [µM] | TGI (HCC-2998 colon) [µM] | TGI (TK-10 renal) [µM] | TGI (SF-295 CNS) [µM] | TGI (RXF 393 renal) [µM] | TGI (IGROV1 ovarian) [µM] | TGI (PC-3 prostate) [µM] | TGI (HT29 colon) [µM] | TGI (A498 renal) [µM] |
| --- | --- | --- | --- | --- | --- | --- | --- | --- | --- | --- | --- | --- | --- | --- | --- | --- | --- | --- | --- | --- |
| NS(=O)(=O)c1nnc(NC(=O)c2cccc([N+](=O)[O-])c2)s1 | > 100 | > 100 | > 100 | > 100 | > 100 | > 100 | > 100 | > 100 | > 100 | > 100 | > 100 | > 100 | > 100 | > 100 | > 100 | > 100 | – | – | – | – |
| CCc1[nH]c(=O)c2oc3cc4ccccc4cc3c2c1C(=O)O | > 10 | – | – | > 10 | > 10 | – | > 10 | – | – | > 10 | > 10 | > 10 | > 10 | > 10 | > 10 | > 10 | > 10 | > 10 | > 10 | – |
| C[C@@H]1OC2(O)[C@H]3CCCN3S(=O)(=O)CCN2C1=O (stereo partly specified) | > 100 | – | > 100 | > 100 | – | > 100 | > 100 | > 100 | > 100 | > 100 | > 100 | > 100 | > 100 | > 100 | > 100 | > 100 | > 100 | – | > 100 | > 100 |
| Nc1ncnc2c1ncn2-c1ccc([N+](=O)[O-])cn1 | > 100 | > 100 | > 100 | > 100 | > 100 | – | > 100 | > 100 | > 100 | > 100 | > 100 | > 100 | > 100 | > 100 | > 100 | > 100 | – | – | > 100 | > 100 |
| COC(=O)n1c(C)c(C=O)c2ccc(OC)cc21 | – | – | > 100 | 82.7 | > 100 | > 100 | > 100 | 57.5 | – | > 100 | > 100 | 84.5 | 55.8 | 67.6 | 69.6 | > 100 | > 100 | > 100 | > 100 | – |
| Cc1ccc(NC(=O)CSc2nnc(Cc3ccccc3)o2)cc1 | > 100 | – | > 100 | > 100 | – | > 100 | > 100 | > 100 | > 100 | > 100 | > 100 | > 100 | > 100 | > 100 | > 100 | > 100 | > 100 | – | > 100 | > 100 |
| Cc1cc(S(=O)(=O)NC2=NCCN2Cc2ccccc2)c(S)cc1Cl | > 100 | > 100 | > 100 | > 100 | > 100 | > 100 | > 100 | > 100 | > 100 | > 100 | > 100 | > 100 | > 100 | > 100 | > 100 | – | > 100 | > 100 | > 100 | – |
| COc1cc(C2c3cc4c(cc3OC(NCCc3ccccc3)C2C)OCO4)cc(OC)c1OC (stereo unspecified) | > 100 | – | > 100 | > 40.9 | > 100 | > 37.7 | > 47.6 | 4.82 | > 100 | > 85.5 | > 52.1 | 15.6 | 0.85 | > 100 | 1.98 | – | 27 | – | 11.1 | – |
| CN(C)/C=N\c1nncc2[nH]cnc12 | > 100 | > 100 | > 100 | > 100 | – | > 100 | > 100 | > 100 | > 100 | > 100 | – | > 100 | > 100 | > 100 | > 100 | – | > 100 | > 100 | > 100 | > 100 |
| CCOC(=O)c1nc2ccccc2nc1Nc1ccc(OC)cc1 | > 100 | – | – | > 100 | > 100 | > 100 | > 100 | > 100 | > 100 | > 100 | > 100 | > 100 | > 100 | > 100 | 54.4 | 39.7 | > 100 | > 100 | > 100 | 84.5 |
| CCOC(=O)CCC(NC(=O)C(N)c1ccc([N+](=O)[O-])cc1)C(=O)NC(CCC(=O)OCC)C(=O)OCC (stereo unspecified) | > 100 | > 100 | – | > 100 | – | > 100 | > 100 | > 100 | > 100 | > 100 | > 100 | – | > 100 | > 100 | – | – | > 100 | > 100 | > 100 | > 100 |
| O=C(Cc1ccc([N+](=O)[O-])c([N+](=O)[O-])c1CC(=O)C(=O)Nc1cc(Cl)ccc1Cl)C(=O)Nc1cc(Cl)ccc1Cl | > 100 | – | > 100 | 45.1 | – | > 100 | > 100 | > 100 | > 100 | > 100 | > 100 | 65.9 | > 100 | > 100 | > 100 | 94.7 | > 100 | – | > 100 | > 100 |
| C#CCNC(=O)NCCCCC(NC(C)=O)C(=O)NCc1ccccc1 (stereo unspecified) | > 100 | – | > 100 | > 100 | – | > 100 | > 100 | > 100 | > 100 | > 100 | > 100 | > 100 | > 100 | > 100 | > 100 | > 100 | > 100 | – | > 100 | > 100 |
| CC1(C)S[C@H](CN)N[C@H]1C(=O)OC(c1ccccc1)c1ccccc1 | > 100 | – | > 100 | > 100 | > 100 | 74.9 | > 100 | 31.4 | > 100 | 40.5 | – | 33.8 | 36 | > 100 | > 100 | > 100 | > 100 | 92.4 | > 100 | 70.4 |
| COc1cc(OC)c2c(=O)c3c([N+](=O)[O-])cccc3n(C)c2c1 | > 100 | – | > 100 | > 100 | – | > 100 | > 100 | > 100 | > 100 | > 100 | > 100 | > 100 | > 100 | > 100 | > 100 | > 100 | > 100 | – | > 100 | > 100 |
| Oc1cc(CN2CCOCCOCCOCCOCC2)c(O)cc1CN1CCOCCOCCOCCOCC1 | 53.1 | – | > 100 | > 67.4 | – | 52.6 | 38.9 | > 100 | 54.7 | > 100 | > 100 | 66.4 | > 100 | > 96.2 | > 100 | 60.5 | > 100 | – | > 73.3 | > 100 |
| COc1cc(/C=N/c2ccccn2)cc(OC)c1OC | > 100 | > 59.4 | > 100 | > 100 | > 100 | > 100 | > 100 | > 100 | > 100 | > 100 | > 100 | > 100 | > 100 | – | > 100 | > 100 | > 100 | – | > 100 | > 100 |
| CC(=O)Oc1c(OC(C)C)c(C)c(O[Si](C(C)C)(C(C)C)C(C)C)c2[nH]c3ccccc3c12 | > 100 | > 100 | > 100 | > 100 | > 100 | > 24.2 | > 100 | > 100 | > 100 | > 100 | > 100 | > 100 | – | > 100 | > 100 | > 100 | > 100 | > 100 | > 100 | – |
| CCOC(=O)CCC(NC(=O)c1ccc(N=Cc2nc3ccccc3nc2-c2ccccc2)cc1)C(=O)OCC (stereo unspecified) | > 100 | – | > 100 | > 100 | – | > 100 | > 100 | > 100 | > 100 | > 100 | > 100 | > 100 | > 100 | > 100 | > 100 | > 100 | > 100 | – | > 100 | > 100 |
| CCOC(=O)N(C)C(=C(F)F)C(F)(F)F | 67.9 | 40.2 | > 100 | 34.3 | > 100 | 51.6 | 46.5 | 30 | > 100 | > 100 | > 100 | 85.5 | 37.7 | 97.8 | > 100 | – | 62.4 | > 100 | 78.2 | – |
| Clc1ccc(CCc2ccncn2)c(Cl)c1 | > 100 | – | > 100 | > 100 | – | > 100 | > 100 | 51.2 | > 100 | > 100 | > 100 | > 100 | > 100 | > 100 | > 100 | 82.4 | > 100 | – | > 100 | > 100 |
| CCOC(=O)[C@@H]1ON2O[C@H](OC3CCCCC3c3ccccc3)C[C@H]3OC(=O)[C@@H]1C32 (stereo partly specified) | > 100 | > 100 | > 100 | > 100 | > 100 | > 100 | > 100 | > 100 | – | > 100 | > 100 | > 100 | > 100 | > 100 | > 100 | > 100 | > 100 | – | > 100 | > 100 |
| CCN(CC)CCC1(C2CCCCC2)CCC(=O)NC1=O (stereo unspecified) | > 100 | – | > 100 | > 100 | – | > 100 | > 100 | > 100 | > 100 | > 100 | > 100 | > 100 | > 100 | > 100 | > 100 | > 100 | > 100 | – | > 100 | > 100 |
| CC(C)CCC[C@@H](C)C1CCC2[C@@H]3CCC4C[C@@H](NS(C)(=O)=O)CC[C@]4(C)C3CC[C@@]21C (stereo partly specified) | > 100 | > 100 | > 100 | > 100 | > 100 | > 100 | > 100 | > 100 | > 100 | > 100 | > 100 | > 100 | – | > 100 | > 100 | > 100 | > 100 | > 100 | > 100 | – |
| CCN(CC)CCCNc1ccc([N+](=O)[O-])c2nc3ccc(OC)cc3c(N)c12 | 3.11 | – | > 5.48 | 3.15 | > 4.96 | 3.86 | > 6.1 | > 10 | > 10 | > 10 | 3.32 | 3.37 | – | > 10 | 3.64 | > 10 | > 5.08 | 3.31 | 3.95 | > 10 |
| CCCCOCOc1ccccc1P1(=O)COc2ccccc2OC1 | > 100 | > 100 | > 100 | > 100 | > 100 | – | > 100 | > 100 | > 100 | > 100 | > 100 | > 100 | > 100 | 94.1 | > 100 | > 100 | > 100 | > 100 | > 100 | – |
| CSC1=C(C(=O)Nc2ccc(C)cc2)C(N)=NC1=O | > 100 | – | > 100 | > 100 | > 100 | > 100 | > 100 | > 100 | > 100 | > 100 | > 100 | > 100 | > 100 | > 100 | > 100 | > 100 | > 100 | – | > 100 | – |
